The record followed here is publication PMC7452424, “Discovery and characterisation of circular bacteriocin plantacyclin B21AG from Lactiplantibacillus plantarum B21” (Heliyon, 2020).

The format of the series is physicochemical. How it is done:
The L. plantarum B21 bacteriocin was purified from the CFS by a three-step protocol process consisting of concentration, n-butanol extraction and cation exchange chromatography by Fast Protein Liquid Chromatography (FPLC). All purification steps were carried out at room temperature. L. plantarum B21 was used as an inoculum 2% (v/v) into 165 mL of MRS broth and incubated at 30 °C for 24 h without shaking. The CFS was prepared as previously described. The CFS was concentrated to 70 mL through a 10 kDa polyethersulfone membrane discs (Generon, UK) using an Amicon UF cell (Model 8200, Millipore, USA). The concentrated CFS was subjected to n-butanol extraction according to Abo-Amer with a few modifications. The concentrated L. plantarum B21 CFS was extracted twice in 1:1 volume of water saturated n-butanol and centrifuged at 10,000 × g for 10 min. The n-butanol fraction containing the bacteriocin was freeze dried (FDU-8612, Operon Co. Ltd, Korea) to remove the solvent. The dried n-butanol fraction was redissolved in 20 mM sodium phosphate buffer, pH 6.0. Both the n-butanol and aqueous fractions were examined for antimicrobial activity. […] The concentration of the bacteriocin was measured after each step of protein purification using Pierce™ BCA Protein Assay Kit (Thermo Fisher Scientific, USA) according to manufacturer's instruction.

On to “cyclo(AAAGALGGTAAIVWIARQFGVHLTTKLTQKALDLLSSGASLGTVAAVILGVTLPGWAV) [plantacyclin B21AG]”, for which the Solubility in butanol result is “remarkable solubility”.
